The conditions of data set [1]: reported in literature; cited from earlier work.
A further data set has as its system PDE4. Particulars: reported in literature; cited from earlier work.
For data set [2] the following is noted: reported in literature; cited from earlier work. The source holds these as a separate data set.
The nature of data set [3]: Hygroscopicity study by dynamic vapor sorption (DVS). The settings on record: 25° C., RH 0%-90%-0%. It is filed as physicochemical. As for the experimental part: Experimental Example 2: Hygroscopicity study of crystalline form of the compound of formula (I)
Instrument model: SMS DVS Advantage
Test conditions: the sample (10-20 mg, the crystalline form prepared in Example 3) was placed in DVS sample tray for testing.
The detailed DVS parameters are as follows:
Balancing: dm/dt=0.01%/min (shortest: 10 min, longest: 180 min)
Drying: drying at 0% RH for 120 min
RH (%) test gradient: 10%
Range of RH (%) test gradient: 0%-90%-0%.

Data set [4] can be described thus: Stability study of solid crystalline form (HPLC total impurities). The format is physicochemical. As for the experimental part: Experimental Example 1: Stability study of solid crystalline form of the compound of formula (I)
High performance liquid chromatography (HPLC) • The chromatographic conditions of the HPLC method are seen in table below: • Chromatography column: Zorbax SB C-18, 4.6 mm×150 mm, 5 μm (PDS-HPLC-007) • Mobile phase A: 0.1% TFA in water • Mobile phase B: 100% ACN
Preparation of sample: the sample was dissolved with a mixed solvent of acetonitrile and water (acetonitrile: water=50:50 (v/v))
Solid stability stakeout method
The stability of the compound in the following conditions was examined, and samples were taken at different time points to detect the content. About 5 mg of the crystalline form of the compound of formula (I) prepared in Example 2 was accurately weighted in duplicate, transferred to a dry and clean glass bottle, spread into a thin layer as test samples, and placed in experimental conditions of influential factors ((60° C.), (relative humidity 92.5%), illumination (total illumination of 1.2×10^6 Luxhr/near UV energy of 200 whr/m^2), (40° C., relative humidity 75%), or (60° C., relative humidity 75%)). The samples were covered with aluminum foils having holes, and thus completely exposed to the conditions. Sampling analysis was performed at 5 days, 10 days, 1 month, 2 months and 3 months. The samples were completely exposed to illumination (visible light of 1200000 Lux, UV of 200 W) at room temperature.

With `COc1cc2c(cc1OC)-c1c/c(=N\c3c(C)cc(C)cc3C)n(CCNC(N)=O)c(=O)n1CC2` [RPL554], the Plasma clearance entry in data set [1] is given as “high”. Also, the PDE4 inhibitory activity result in the data set with PDE4 is “unsatisfactory”. The Solubility entry in data set [2] is recorded as “poor”.
On to `CCOc1cc2c(cc1OC)-c1c/c(=N\c3c(C)cc(C)cc3C)n(CCNC(=O)c3c(O)nnn3C)c(=O)n1CC2`, for which the “Hygroscopicity (DVS)” value in data set [3] is reported as “small hygroscopicity”. The Total impurities % in data set [4] (40° C. + 75% RH - 1 month) is reported as 0.10%; in data set [4] (40° C. + 75% RH - 2 months), 0.08%; in data set [4] (40° C. + 75% RH - 3 months), 0.09%; in data set [4] (40° C. + 75% RH - 10 days) it was 0.10%; in data set [4] (60° C. + 75% RH - 1 month), 0.10%; in data set [4] (60° C. + 75% RH - 10 days) it was 0.10%. Further, the Total impurities % amounted to 0.10% in data set [4] (60° C. - 5 days); 0.11% in data set [4] (60° C. - 10 days); 0.11% in data set [4] (92.5% RH - 5 days); 0.10% in data set [4] (92.5% RH - 10 days); 0.11% in data set [4] (Day 0); 0.10% in data set [4] (Illumination (1.2×10^6 Lux hr, near UV 200 w hr/m^2)). In data set [4] (In the dark), this compound came in with a Total impurities % of 0.11%. Also, the “Stability in the conditions of high temperature, high humidity or illumination” value in data set [4] (high temperature, high humidity or illumination, no increase of impurities) is reported as “good stability”.

Values taken from US20230060174A1, “PHARMACEUTICAL COMPOSITION OF TRICYCLIC PDE3/PDE4 DUAL INHIBITOR COMPOUND” (CHIA TAI TIANQING PHARMACEUTICAL GROUP CO., LTD., priority 2020, published 2023).
